How the values were obtained:
[1] = test system: mice; experiment: Acute intraperitoneal LD50 in mice; conditions: acute, i.p., per body weight
[2] = Acute intraperitoneal LD50 in mice; conditions: mouse, in vivo, ip, LD50, acute, per body weight
[3] = Solubility in organic solvents
[4] = test system: colon 38 tumor; experiment: Colon 38 tumor weight in mice; type: in vivo; conditions: dose level 25 mg/kg; evaluated on 20th day of implantation in mice
Description: (j) Ravidomycin causes 50% reduction in colon 38 tumor weight at dose level of 25 mg/kg. evaluated on 20th day of implantation in mice.

[5] = test system: Streptomyces ravidus NRRL 11,300; experiment: Streptomycin resistance of the producing organism; conditions: 10 μg streptomycin per ml

C=Cc1cc(OC)c2c(c1)c(=O)oc1c2cc(OC)c2c(O)ccc(C3OC(C)C(OC(C)=O)C(N(C)C)C3O)c21 (centres unmarked) [ravidomycin]
LD50 [1]: greater than 400 mg/kg
LD50 ([1]; listed as Ravidomycin): 400 mg/kg
LD50 [2]: > 400 mg/kg
solubility ([3]; in acetone, methanol, ethanol, chloroform): soluble
solubility ([3]; in diethyl ether): sparingly soluble
reduction in colon 38 tumor weight [4]: 50%

[H]/N=C(/N)N[C@H]1[C@H](O)[C@@H](O)[C@H](O[C@@H]2O[C@@H](C)[C@](O)(C=O)[C@H]2O[C@@H]2O[C@@H](CO)[C@H](O)[C@@H](O)[C@@H]2NC)[C@@H](N/C(N)=N\[H])[C@@H]1O [streptomycin]
resistance of Streptomyces ravidus to streptomycin [5]: resistant
resistance of Streptomyces ravidus to streptomycin ([5]; listed as Streptomycin): Resistant

— patent US4230692A, “Ravidomycin and process of preparation” (Ayerst McKenna & Harrison, Inc., priority 1978, dated 1980)
